This note sets out measurements from patent publication US11944626B2, “Small molecule inhibitors of ALDH and uses thereof” (The Regents of the University of Michigan, priority 2016, dated 2024).

One series concerns the target T1, ALDH2 (Homo sapiens, UniProt P05091).
T1 sequence (P05091 18-517): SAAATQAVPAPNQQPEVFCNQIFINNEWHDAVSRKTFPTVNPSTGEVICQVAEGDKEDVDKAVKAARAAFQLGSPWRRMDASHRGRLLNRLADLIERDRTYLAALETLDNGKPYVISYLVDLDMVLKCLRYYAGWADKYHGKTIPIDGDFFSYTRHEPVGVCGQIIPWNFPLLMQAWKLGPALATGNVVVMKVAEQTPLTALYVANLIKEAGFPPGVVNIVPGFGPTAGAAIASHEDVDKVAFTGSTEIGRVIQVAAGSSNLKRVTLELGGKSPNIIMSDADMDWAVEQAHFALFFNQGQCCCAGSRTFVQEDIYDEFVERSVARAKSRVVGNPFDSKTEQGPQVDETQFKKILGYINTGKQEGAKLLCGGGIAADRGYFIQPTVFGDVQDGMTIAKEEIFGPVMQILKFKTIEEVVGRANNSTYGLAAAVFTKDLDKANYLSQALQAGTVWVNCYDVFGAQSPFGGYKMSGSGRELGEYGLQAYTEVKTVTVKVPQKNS
Put plainly: Inhibition of ALDH isoenzymes (NAD(P)H formation at 340 nm, purified recombinant enzyme). The format is biochemical. More on the design: key to ALDH2 inhibition at 20 μM (N.I.): N.I.: No inhibition at 20 μM. As to conditions: compound at 20 μM; for remaining activity at 20 µM: read-out: ALDH2 % Control at 20 μM.

A further series deals with OVSAHO. Kind of series: OVSAHO Cell Viability. The format is cell-based. As to conditions: for OVSAHO Cell Viability (30 μM) % CD133 + % ctrl / OVSAHO Cell Viability (50 μM) % CD133 + % ctrl: CD133+ cells; for OVSAHO Cell Viability (30 μM) Total Cell % ctrl / OVSAHO Cell Viability (50 μM) Total Cell % ctrl: total cells.
For another series, the target named is T2, ALDH1A2 (Homo sapiens, UniProt O94788).
T2 sequence (O94788 1-518): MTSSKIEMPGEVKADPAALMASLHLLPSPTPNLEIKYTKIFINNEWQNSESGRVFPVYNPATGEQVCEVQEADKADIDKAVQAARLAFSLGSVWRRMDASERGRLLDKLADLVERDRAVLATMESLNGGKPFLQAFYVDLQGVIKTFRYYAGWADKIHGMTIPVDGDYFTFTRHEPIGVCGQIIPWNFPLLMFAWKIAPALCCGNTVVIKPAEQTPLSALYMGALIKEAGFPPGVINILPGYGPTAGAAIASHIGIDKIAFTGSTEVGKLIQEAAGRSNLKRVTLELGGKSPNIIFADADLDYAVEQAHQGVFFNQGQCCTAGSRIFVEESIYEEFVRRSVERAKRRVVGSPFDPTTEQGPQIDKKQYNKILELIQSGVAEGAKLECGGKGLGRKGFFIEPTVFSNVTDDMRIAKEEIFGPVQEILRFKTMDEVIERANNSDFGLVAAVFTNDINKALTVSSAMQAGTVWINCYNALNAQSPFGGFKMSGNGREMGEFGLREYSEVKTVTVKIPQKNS
Put plainly: Inhibition of ALDH isoenzymes (NAD(P)H formation at 340 nm, purified recombinant enzyme). In kind it is biochemical. Particulars: for remaining activity at 20 µM: compound at 20 μM, read-out: ALDH1A2 % Control at 20 μM.

The target in another series is T3, ALDH1A1 (Homo sapiens, UniProt P00352).
T3 sequence (P00352 1-501): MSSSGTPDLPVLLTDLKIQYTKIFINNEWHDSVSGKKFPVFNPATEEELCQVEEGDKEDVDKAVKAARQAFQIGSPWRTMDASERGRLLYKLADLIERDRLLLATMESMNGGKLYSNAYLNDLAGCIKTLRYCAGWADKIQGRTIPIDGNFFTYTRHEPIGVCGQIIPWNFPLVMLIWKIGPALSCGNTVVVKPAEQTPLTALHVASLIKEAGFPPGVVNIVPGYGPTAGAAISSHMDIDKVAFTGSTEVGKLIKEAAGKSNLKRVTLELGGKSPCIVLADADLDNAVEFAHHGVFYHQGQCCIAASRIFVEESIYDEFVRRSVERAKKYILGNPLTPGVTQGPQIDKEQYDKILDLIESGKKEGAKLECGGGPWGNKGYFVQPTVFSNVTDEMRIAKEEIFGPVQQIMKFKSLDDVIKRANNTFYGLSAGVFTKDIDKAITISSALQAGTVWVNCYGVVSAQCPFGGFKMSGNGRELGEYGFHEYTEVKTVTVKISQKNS
The series is described as above. The format is biochemical. As to conditions: for remaining activity at 20 µM: compound at 20 μM, read-out: ALDH1A1 % Control at 20 μM.

Setting [1] is: 100-200 nM enzyme, 200 μM NAD+, 100 μM propionaldehyde, pH 7.5, 25° C.
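Throughout, for ALDH2 % Control at 20 μM: run at 25 °C, started by adding substrate after 2 min preincubation, with 100-200 nM ALDH2, 200 µM NAD+, 100 µM propionaldehyde, 1% DMSO in BES buffer pH 7.5.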
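Throughout, for ALDH2 inhibition at 20 μM (N.I.): run at 25 °C, started by adding substrate after 2 min preincubation, with 100-200 nM ALDH2, 200 µM NAD+, 100 µM propionaldehyde, 1% DMSO in BES buffer pH 7.5.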

As for `CC(Sc1nc2c(cnn2C)c(=O)n1-c1ccccc1)c1ccccc1` (racemic) [Example 61, 1-methyl-5-phenyl-6-((1-phenylethyl)thio)-1H-pyrazolo[3,4-d]pyrimidin-4(5H)-one], on ALDH2, the remaining activity at 20 µM came out at 107%. Further, in the series on OVSAHO, the “OVSAHO Cell Viability (30 μM) % CD133 + % ctrl” value was 88% ctrl and the “OVSAHO Cell Viability (30 μM) Total Cell % ctrl” value came to 7% ctrl.

`O=c1c2cn[nH]c2nc(SCc2cccc(F)c2)n1-c1ccccc1` [Example 2, 6-((3-fluorobenzyl)thio)-5-phenyl-1H-pyrazolo[3,4-d]pyrimidin-4(5H)-one]: in the series on OVSAHO, the “OVSAHO Cell Viability (50 μM) % CD133 + % ctrl” value came out at 58 % ctrl and the “OVSAHO Cell Viability (50 μM) Total Cell % ctrl” value came out at 39 % ctrl.

For `Cc1ccccc1-n1c(SCc2cccc(F)c2)nc2c(cnn2C)c1=O` [Example 3, 6-((3-fluorobenzyl)thio)-1-methyl-5-(o-tolyl)-1H-pyrazolo[3,4-d]pyrimidin-4(5H)-one], the IC50 on ALDH1A2 (setting [1]) was greater than 20 µM.

For the compound `Cc1ccccc1-n1c(SCc2cccc(F)c2)nc2c(cnn2C2COC2)c1=O` [Example 9, 6-((3-fluorobenzyl)thio)-1-(oxetan-3-yl)-5-(o-tolyl)-1H-pyrazolo[3,4-d]pyrimidin-4(5H)-one], in the series with OVSAHO, the “OVSAHO Cell Viability (50 μM) % CD133 + % ctrl” value was determined as 50 % ctrl and the “OVSAHO Cell Viability (50 μM) Total Cell % ctrl” value is on record as 22 % ctrl. Further, the remaining activity at 20 µM on ALDH1A2 was found to be 31%.

Turning to `Cc1ccccc1-n1c(SCc2cccc(F)c2)nc2c(cnn2CC2COC2)c1=O` [Example 11, 6-((3-fluorobenzyl)thio)-1-(oxetan-3-ylmethyl)-5-(o-tolyl)-1H-pyrazolo[3,4-d]pyrimidin-4(5H)-one], in the series on OVSAHO, the “OVSAHO Cell Viability (50 μM) % CD133 + % ctrl” value was determined as 69 % ctrl and the “OVSAHO Cell Viability (50 μM) Total Cell % ctrl” value was found to be 30 % ctrl.

`Cn1cc2c(=O)n(-c3ccccc3)c(SCc3cccc(F)c3)nc2n1` [Example 13, 6-((3-fluorobenzyl)thio)-2-methyl-5-phenyl-2H-pyrazolo[3,4-d]pyrimidin-4(5H)-one]: in the series with OVSAHO, the “OVSAHO Cell Viability (50 μM) % CD133 + % ctrl” value was 83 % ctrl and the “OVSAHO Cell Viability (50 μM) Total Cell % ctrl” value is 69 % ctrl.

As to `Cn1ncc2c(=O)n(-c3ccccc3)c(SCc3cccc(F)c3)nc21` [Example 27, 6-((3-fluorobenzyl)thio)-1-methyl-5-phenyl-1H-pyrazolo[3,4-d]pyrimidin-4(5H)-one], the “ALDH2 inhibition at 20 μM (N.I.)” value on ALDH2 is “N.I”.

On to `Cn1ncc2c(=O)n(-c3cccnc3)c(SCc3cccc(F)c3)nc21` [Example 31, 6-((3-fluorobenzyl)thio)-1-methyl-5-(pyridin-3-yl)-1H-pyrazolo[3,4-d]pyrimidin-4(5H)-one], for which, in the series with OVSAHO, the “OVSAHO Cell Viability (50 μM) % CD133 + % ctrl” value was determined as 81 % ctrl and the “OVSAHO Cell Viability (50 μM) Total Cell % ctrl” value is 79 % ctrl.

For the compound `Cn1ncc2c(=O)n(-c3ccncc3)c(SCc3cccc(F)c3)nc21` [Example 32, 6-((3-fluorobenzyl)thio)-1-methyl-5-(pyridin-4-yl)-1H-pyrazolo[3,4-d]pyrimidin-4(5H)-one], in the series with OVSAHO, the “OVSAHO Cell Viability (50 μM) % CD133 + % ctrl” value was 75 % ctrl and the “OVSAHO Cell Viability (50 μM) Total Cell % ctrl” value is given as 66 % ctrl. In addition, the IC50 at ALDH1A1 (setting [1]) turned out to be 5.2 µM.

Consider `Cn1ncc2c(=O)n(-c3ccccn3)c(SCc3cccc(F)c3)nc21` [Example 34, 6-((3-fluorobenzyl)thio)-1-methyl-5-(pyridin-2-yl)-1H-pyrazolo[3,4-d]pyrimidin-4(5H)-one], for which, in the series with OVSAHO, the “OVSAHO Cell Viability (50 μM) % CD133 + % ctrl” value is recorded as 81 % ctrl and the “OVSAHO Cell Viability (50 μM) Total Cell % ctrl” value was found to be 77 % ctrl.

With `Cn1ncc2c(=O)n(Cc3ccccc3)c(SCc3cccc(F)c3)nc21` [Example 36, 5-benzyl-6-((3-fluorobenzyl)thio)-1-methyl-1H-pyrazolo[3,4-d]pyrimidin-4(5H)-one], at ALDH2, the “ALDH2 inhibition at 20 μM (N.I.)” value is “N.I”. Also, in the series with OVSAHO, the “OVSAHO Cell Viability (50 μM) % CD133 + % ctrl” value is 5 % ctrl and the “OVSAHO Cell Viability (50 μM) Total Cell % ctrl” value worked out at 12 % ctrl.

Regarding `Cn1c(SCc2cccc(F)c2)nc2c(cnn2C)c1=O` [Example 37, 6-((3-fluorobenzyl)thio)-1,5-dimethyl-1H-pyrazolo[3,4-d]pyrimidin-4(5H)-one], in the series on OVSAHO, the “OVSAHO Cell Viability (50 μM) % CD133 + % ctrl” value turned out to be 88 % ctrl and the “OVSAHO Cell Viability (50 μM) Total Cell % ctrl” value was found to be 7 % ctrl.

In the case of `Cn1ncc2c(=O)n(-c3cccc(Cl)c3)c(SCc3cccc(F)c3)nc21` [Example 42, 5-(3-chlorophenyl)-6-((3-fluorobenzyl)thio)-1-methyl-1H-pyrazolo[3,4-d]pyrimidin-4(5H)-one], the remaining activity at 20 µM at ALDH2 was 137%.

Take `Cn1ncc2c(=O)n(-c3ccc(Cl)cc3)c(SCc3cccc(F)c3)nc21` [Example 43, 5-(4-chlorophenyl)-6-((3-fluorobenzyl)thio)-1-methyl-1H-pyrazolo[3,4-d]pyrimidin-4(5H)-one]: at ALDH2, the remaining activity at 20 µM came to 153%.

On to `Cn1ncc2c(=O)n(-c3ccccc3)c(/C=C/c3cccc(F)c3)nc21` [Example 47, (E)-6-(3-fluorostyryl)-1-methyl-5-phenyl-1H-pyrazolo[3,4-d]pyrimidin-4(5H)-one], for which the remaining activity at 20 µM at ALDH2 turned out to be 110%; at ALDH1A2 it was 15%; at ALDH1A1, 28%.

As for `Cn1ncc2c(=O)n(-c3ccccc3)c(CNc3cccc(F)c3)nc21` [Example 49, 6-(((3-fluorophenyl)amino)methyl)-1-methyl-5-phenyl-1H-pyrazolo[3,4-d]pyrimidin-4(5H)-one], the remaining activity at 20 µM on ALDH2 worked out at 89%.

For the compound `Cn1ncc2c(=O)n(-c3ccccc3)c(CSc3cccc(F)c3)nc21` [Example 51, 6-(((3-fluorophenyl)thio)methyl)-1-methyl-5-phenyl-1H-pyrazolo[3,4-d]pyrimidin-4(5H)-one], the remaining activity at 20 µM on ALDH2 is 92%; on ALDH1A1, 25%.

As to `Cn1ncc2c(=O)n(-c3ccccc3)c(OCc3cccc(F)c3)nc21` [Example 60, 6-((3-fluorobenzyl)oxy)-1-methyl-5-phenyl-1H-pyrazolo[3,4-d]pyrimidin-4(5H)-one], the remaining activity at 20 µM on ALDH2 was determined as 91%. Also, in the series with OVSAHO, the “OVSAHO Cell Viability (30 μM) % CD133 + % ctrl” value is on record as 76% ctrl and the “OVSAHO Cell Viability (30 μM) Total Cell % ctrl” value was determined as 35% ctrl.

Consider `CN(Cc1nc2c(cnn2C)c(=O)n1-c1ccccc1)c1cccc(F)c1` [Example 62, 6-(((3-fluorophenyl)(methyl)amino)methyl)-1-methyl-5-phenyl-1H-pyrazolo[3,4-d]pyrimidin-4(5H)-one], for which the remaining activity at 20 µM on ALDH2 was found to be 103%. Besides, in the series on OVSAHO, the “OVSAHO Cell Viability (30 μM) % CD133 + % ctrl” value was found to be 96% ctrl and the “OVSAHO Cell Viability (30 μM) Total Cell % ctrl” value worked out at 65% ctrl.

In the case of `CC(Sc1nc2nn(CC3COC3)cc2c(=O)n1-c1ccccc1)c1ccccc1` (stereo not shown) [Example 64, 2-(oxetan-3-ylmethyl)-5-phenyl-6-((1-phenylethyl)thio)-2H-pyrazolo[3,4-d]pyrimidin-4(5H)-one], the remaining activity at 20 µM at ALDH2 was 100%.

`C[C@@H](Sc1nc2c(cnn2C)c(=O)n1-c1ccccc1)c1ccccc1` [Example 65, (R)-1-methyl-5-phenyl-6-((1-phenylethyl)thio)-1H-pyrazolo[3,4-d]pyrimidin-4(5H)-one]: the remaining activity at 20 µM on ALDH2 turned out to be 100%. In the series with OVSAHO, the “OVSAHO Cell Viability (30 μM) % CD133 + % ctrl” value is given as 117% ctrl and the “OVSAHO Cell Viability (30 μM) Total Cell % ctrl” value was determined as 75% ctrl.

`CC(Oc1nc2c(cnn2C)c(=O)n1-c1ccccc1)c1ccccc1` (stereo not shown) [Example 66, 1-methyl-5-phenyl-6-(1-phenylethoxy)-1H-pyrazolo[3,4-d]pyrimidin-4(5H)-one]: on ALDH2, the remaining activity at 20 µM is 92%. Further, in the series with OVSAHO, the “OVSAHO Cell Viability (30 μM) Total Cell % ctrl” value came out at 76% ctrl.
